# Patent publication US10301280B2 (Plexxikon Inc., priority 2012, dated 2019)
# Target: c-kit kinase (Homo sapiens (Human), UniProt P10721)
# Assay: c-Kit biochemical assay (AlphaScreen)
# Settings: c-kit biochemical inhibitory activity
# Protocol: Assays for biochemical cell-based activity of c-kit kinase are known in the art, for example, as described in U.S. Pat. Nos. 7,498,342 and 7,846,941, the disclosures of which are hereby incorporated by reference as it relates to such assays. The c-kit (or kinase domain thereof) is an active kinase in AlphaScreen. IC50 values are determined with respect to inhibition of c-Kit kinase activity, where inhibition of phosphorylation of a peptide substrate is measured as a function of compound concentration. Compounds to be tested were dissolved in DMSO to a concentration of 20 mM. These were diluted 30 μl into 120 μl of DMSO (4 mM) and 1 μl was added to an assay plate. These were then serially diluted 1:3 (50 μl to 100 μl DMSO) for a total of 8 points. Plates were prepared such that each kinase reaction is 20 μl in 1× kinase buffer (50 mM HEPES, pH 7.2, 5 mM MgCl2, 5 mM MnCl2, 0.01% NP-40, 0.2% BSA), 5% DMSO and 10 µM ATP. Substrate was 100 nM biotin-(E4Y)3 (Open Source Biotech, Inc.). C-kit kinase was at 0.1 ng per sample. After incubation of the kinase reaction for 1 hour at room temperature, 5 μl of donor beads (Streptavidin coated beads (Perkin Elmer Life Science) final concentration 1 μg/ml) in stop buffer (50 mM EDTA in 1× kinase buffer) was added, the sample was mixed and incubated for 20 minutes at room temperature before adding 5 μl of acceptor beads (PY20 coated beads (Perkin Elmer Life Science) final concentration 1 μg/ml) in stop buffer. The samples were incubated for 60 minutes at room temperature and the signal per well was read on AlphaQuest reader. Phosphorylated substrate results in binding of the PY20 antibody and association of the donor and acceptor beads such that signal correlates with kinase activity. The signal vs. compound concentration was used to determine the IC50.
# Compounds were also tested using a similar assay with a 10-fold higher ATP concentration. For these samples, compounds to be tested were dissolved in DMSO to a concentration of 20 mM. These were diluted 30 μl into 120 μl of DMSO (4 mM) and 1 μl was added to an assay plate. These were then serially diluted 1:3 (50 μl to 100 μl DMSO) for a total of 8 points. Plates were prepared such that each kinase reaction is 20 μl in 1× kinase buffer (25 mM HEPES, pH 7.5, 2 mM MgCl2, 2 mM MnCl2, 0.01% Tween-20, 1 mM DTT, and 0.001% BSA), 5% DMSO and 100 µM ATP. Substrate was 30 nM biotin-(E4Y)10 (Upstate Biotech, Cat#12-440). C-kit kinase was at 1 ng per sample. After incubation of the kinase reaction for 1 hour at room temperature, 5 μl of donor beads (Streptavidin coated beads (Perkin Elmer Life Science) final concentration 10 μg/ml) in stop buffer (25 mM HEPES pH 7.5, 100 mM EDTA, 0.3% BSA) was added, the sample was mixed and incubated for 20 minutes at room temperature before adding 5 μl of acceptor beads (PY20 coated beads (Perkin Elmer Life Science) final concentration 10 μg/ml) in stop buffer. The samples were incubated for 60 minutes at room temperature and the signal per well was read on AlphaQuest or Envision reader (Perkin Elmer Life Science). Phosphorylated substrate results in binding of the PY20 antibody and association of the donor and acceptor beads such that signal correlates with kinase activity. The signal vs. compound concentration was used to determine the IC50.
# The c-kit enzyme used in the above assay was either obtained from Cell Signaling Technology (Cat. #7754) or was prepared as follows: A plasmid encoding kit (DNA and encoded protein sequences shown below) was engineered using common polymerase chain reaction (PCR) methods. Complementary DNA cloned from various human tissues were purchased from Invitrogen, and these were used as substrates in the PCR reactions. Specific custom synthetic oligonucleotide primers were designed to initiate the PCR product, and also to provide the appropriate restriction enzyme cleavage sites for ligation with the plasmids. […]
# c-kit kinase, sequence (P10721 26-976): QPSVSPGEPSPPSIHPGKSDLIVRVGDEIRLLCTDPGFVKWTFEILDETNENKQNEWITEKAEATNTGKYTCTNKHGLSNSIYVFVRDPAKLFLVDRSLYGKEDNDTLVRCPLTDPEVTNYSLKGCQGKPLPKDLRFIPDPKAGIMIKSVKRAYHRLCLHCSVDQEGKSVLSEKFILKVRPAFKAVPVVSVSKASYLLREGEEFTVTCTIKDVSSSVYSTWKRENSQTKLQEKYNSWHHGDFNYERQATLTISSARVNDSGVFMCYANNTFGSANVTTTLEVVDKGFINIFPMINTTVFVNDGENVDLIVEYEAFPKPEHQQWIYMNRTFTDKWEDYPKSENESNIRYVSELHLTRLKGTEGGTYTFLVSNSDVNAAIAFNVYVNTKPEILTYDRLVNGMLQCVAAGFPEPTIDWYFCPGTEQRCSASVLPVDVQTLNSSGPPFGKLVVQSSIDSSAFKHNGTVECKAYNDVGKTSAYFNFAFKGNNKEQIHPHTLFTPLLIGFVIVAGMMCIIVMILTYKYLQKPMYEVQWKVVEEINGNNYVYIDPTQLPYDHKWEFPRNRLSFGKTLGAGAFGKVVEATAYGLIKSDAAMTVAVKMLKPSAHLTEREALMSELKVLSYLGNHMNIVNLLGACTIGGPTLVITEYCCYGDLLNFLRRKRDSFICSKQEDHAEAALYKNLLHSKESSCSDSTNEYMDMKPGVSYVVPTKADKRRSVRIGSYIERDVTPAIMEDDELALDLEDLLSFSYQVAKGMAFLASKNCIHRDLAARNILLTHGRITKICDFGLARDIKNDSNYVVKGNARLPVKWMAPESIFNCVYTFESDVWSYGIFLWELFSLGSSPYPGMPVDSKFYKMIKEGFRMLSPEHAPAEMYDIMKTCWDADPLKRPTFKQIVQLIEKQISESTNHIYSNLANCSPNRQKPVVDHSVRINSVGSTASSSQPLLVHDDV
row,SMILES,IC50 [µM]
1,"Cc1n[nH]c(C(=O)Nc2cnc(Nc3cccc(N4CCOCC4)c3)nc2)c1C [P-2051, 3,4-dimethyl-N-[2-(3-morpholinoanilino)pyrimidin-5-yl]-1H-pyrazole-5-carboxamide]",0.0001 to 1
2,"CCCS(=O)(=O)Nc1cccc(Nc2ncc(NC(=O)c3[nH]nc(C)c3C)cn2)c1 [P-2052, 3,4-dimethyl-N-[2-[3-(propylsulfonylamino)anilino]pyrimidin-5-yl]-1H-pyrazole-5-carboxamide]",1 to 10
3,"Cc1n[nH]c(C(=O)Nc2cnc(Nc3cccc(NS(=O)(=O)c4ccccc4)c3)nc2)c1C [P-2053, N-[2-[3-(benzenesulfonamido)anilino]pyrimidin-5-yl]-3,4-dimethyl-1H-pyrazole-5-carboxamide]",1 to 10
4,"CNC(=O)c1cccc(Nc2ncc(NC(=O)c3[nH]nc(C)c3C)cn2)c1 [P-2054, 3,4-dimethyl-N-[2-[3-(methylcarbamoyl)anilino]pyrimidin-5-yl]-1H-pyrazole-5-carboxamide]",1 to 10
5,"CCOC(=O)Nc1cccc(Nc2ncc(NC(=O)c3[nH]nc(C)c3C)cn2)c1 [P-2055, ethyl N-[3-[[5-[(3,4-dimethyl-1H-pyrazole-5-carbonyl)amino]pyrimidin-2-yl]amino]phenyl]carbamate]",1 to 10
6,"Cc1n[nH]c(C(=O)Nc2cnc3[nH]c(C4=CCN(S(C)(=O)=O)CC4)cc3c2)c1Cl [P-2057, 4-chloro-3-methyl-N-[2-(1-methylsulfonyl-3,6-dihydro-2H-pyridin-4-yl)-1H-pyrrolo[2,3-b]pyridin-5-yl]-1H-pyrazole-5-carboxamide]",0.0001 to 1
7,"Cc1cc(C(=O)Nc2cnc3[nH]c(N4CCOCC4)cc3c2)[nH]n1 [P-2058, 3-methyl-N-(2-morpholino-1H-pyrrolo[2,3-b]pyridin-5-yl)-1H-pyrazole-5-carboxamide]",10 to 200
8,"Cc1n[nH]c(C(=O)Nc2cnc3[nH]c(-c4cnc(N5CCN(C)CC5)nc4)cc3c2)c1C [P-2160, 3,4-dimethyl-N-[2-[2-(4-methylpiperazin-1-yl)pyrimidin-5-yl]-1H-pyrrolo[2,3-b]pyridin-5-yl]-1H-pyrazole-5-carboxamide]",1 to 10
9,"Cc1n[nH]c(C(=O)Nc2cnc3[nH]nc(-c4cccc(N5CCN(C(=O)OC(C)(C)C)CC5)c4)c3c2)c1C [P-2162, tert-butyl 4-[3-[5-[(3,4-dimethyl-1H-pyrazole-5-carbonyl)amino]-1H-pyrazolo[3,4-b]pyridin-3-yl]phenyl]piperazine-1-carboxylate]",0.0001 to 1
10,"Cc1n[nH]c(C(=O)Nc2cnc3[nH]c(-c4ccnc(C(C)C)c4)cc3c2)c1C [P-2163, N-[2-(2-isopropyl-4-pyridyl)-1H-pyrrolo[2,3-b]pyridin-5-yl]-3,4-dimethyl-1H-pyrazole-5-carboxamide]",0.0001 to 1
11,"[2H]c1c([2H])c([2H])c(-c2cc3cc(NC(=O)c4[nH]nc(C)c4C)cnc3[nH]2)c([2H])c1[2H] [P-2164, 3,4-dimethyl-N-[2-(2,3,4,5,6-pentadeuteriophenyl)-1H-pyrrolo[2,3-b]pyridin-5-yl]-1H-pyrazole-5-carboxamide]",1 to 10
12,"Cc1n[nH]c(C(=O)Nc2cnc3[nH]c(-c4c(C)nn(C)c4C)cc3c2)c1C [P-2165, 3,4-dimethyl-N-[2-(1,3,5-trimethylpyrazol-4-yl)-1H-pyrrolo[2,3-b]pyridin-5-yl]-1H-pyrazole-5-carboxamide]",0.0001 to 1
13,"Cc1n[nH]c(C(=O)Nc2cnc3[nH]nc(-c4cccc(N5CCNCC5)c4)c3c2)c1C [P-2166, 3,4-dimethyl-N-[3-(3-piperazin-1-ylphenyl)-1H-pyrazolo[3,4-b]pyridin-5-yl]-1H-pyrazole-5-carboxamide]",0.0001 to 1
14,"Cc1n[nH]c(C(=O)Nc2cnc3[nH]c(-c4c(C)n[nH]c4C)cc3c2)c1C [P-2167, N-[2-(3,5-dimethyl-1H-pyrazol-4-yl)-1H-pyrrolo[2,3-b]pyridin-5-yl]-3,4-dimethyl-1H-pyrazole-5-carboxamide]",0.0001 to 1
15,"Cc1nn(C2COC2)cc1-c1cc2cc(NC(=O)c3[nH]nc(C)c3C)cnc2[nH]1 [P-2168, 3,4-dimethyl-N-[2-[3-methyl-1-(oxetan-3-yl)pyrazol-4-yl]-1H-pyrrolo[2,3-b]pyridin-5-yl]-1H-pyrazole-5-carboxamide]",0.0001 to 1
16,"Cc1n[nH]c(C(=O)Nc2cnc3[nH]c(-c4ccc(F)c(-c5nn[nH]n5)c4)cc3c2)c1C [P-2174, N-[2-[4-fluoro-3-(2H-tetrazol-5-yl)phenyl]-1H-pyrrolo[2,3-b]pyridin-5-yl]-3,4-dimethyl-1H-pyrazole-5-carboxamide]",1 to 10
17,"Cc1n[nH]c(C(=O)Nc2cnc3[nH]c(-c4cccnc4C(F)(F)F)cc3c2)c1C [P-2176, 3,4-dimethyl-N-[2-[2-(trifluoromethyl)-3-pyridyl]-1H-pyrrolo[2,3-b]pyridin-5-yl]-1H-pyrazole-5-carboxamide]",10 to 200
18,"CCc1cc(-c2cc3cc(NC(=O)c4[nH]nc(C)c4C)cnc3[nH]2)ccn1 [P-2177, N-[2-(2-ethyl-4-pyridyl)-1H-pyrrolo[2,3-b]pyridin-5-yl]-3,4-dimethyl-1H-pyrazole-5-carboxamide]",0.0001 to 1
19,"CCc1ccc(-c2cc3cc(NC(=O)c4[nH]nc(C)c4C)cnc3[nH]2)cn1 [P-2178, N-[2-(6-ethyl-3-pyridyl)-1H-pyrrolo[2,3-b]pyridin-5-yl]-3,4-dimethyl-1H-pyrazole-5-carboxamide]",10 to 200
20,"Cc1n[nH]c(C(=O)Nc2cnc3[nH]c(-c4ccnc5c4OCCO5)cc3c2)c1C [P-2179, N-[2-(2,3-dihydro-[1,4]dioxino[2,3-b]pyridin-8-yl)-1H-pyrrolo[2,3-b]pyridin-5-yl]-3,4-dimethyl-H-pyrazole-5-carboxamide]",1 to 10
21,"Cc1n[nH]c(C(=O)Nc2cnc3[nH]c(-c4ccccc4C(F)(F)F)cc3c2)c1C [P-2180, 3,4-dimethyl-N-[2-[2-(trifluoromethyl)phenyl]-1H-pyrrolo[2,3-b]pyridin-5-yl]-1H-pyrazole-5-carboxamide]",1 to 10
22,"Cc1ccc(-c2cc3cc(NC(=O)c4[nH]nc(C)c4C)cnc3[nH]2)c(C)c1 [P-2181, N-[2-(2,4-dimethylphenyl)-1H-pyrrolo[2,3-b]pyridin-5-yl]-3,4-dimethyl-1H-pyrazole-5-carboxamide]",10 to 200
23,"Cc1n[nH]c(C(=O)Nc2cnc3[nH]c(-c4ccccc4OC(F)(F)F)cc3c2)c1C [P-2182, 3,4-dimethyl-N-[2-[2-(trifluoromethoxy)phenyl]-1H-pyrrolo[2,3-b]pyridin-5-yl]-1H-pyrazole-5-carboxamide]",1 to 10
24,"COc1cncc(-c2cc3cc(NC(=O)c4[nH]nc(C)c4C)cnc3[nH]2)c1 [P-2183, N-[2-(5-methoxy-3-pyridyl)-1H-pyrrolo[2,3-b]pyridin-5-yl]-3,4-dimethyl-1H-pyrazole-5-carboxamide]",10 to 200
25,"Cc1cncc(-c2cc3cc(NC(=O)c4[nH]nc(C)c4C)cnc3[nH]2)c1 [P-2184, 3,4-dimethyl-N-[2-(5-methyl-3-pyridyl)-1H-pyrrolo[2,3-b]pyridin-5-yl]-1H-pyrazole-5-carboxamide]",1 to 10
26,"Cc1n[nH]c(C(=O)Nc2cnc3[nH]c(-c4ccnc(N5CCN(S(C)(=O)=O)CC5)c4)cc3c2)c1C [P-2186, 3,4-dimethyl-N-[2-[2-(4-methylsulfonylpiperazin-1-yl)-4-pyridyl]-1H-pyrrolo[2,3-b]pyridin-5-yl]-1H-pyrazole-5-carboxamide]",1 to 10
27,"Cc1n[nH]c(C(=O)Nc2cnc3[nH]c(-c4ccnc(N5CCN(C(=O)C6CC6)CC5)c4)cc3c2)c1C [P-2187, N-[2-[2-[4-(cyclopropanecarbonyl)piperazin-1-yl]-4-pyridyl]-1H-pyrrolo[2,3-b]pyridin-5-yl]-3,4-dimethyl-1H-pyrazole-5-carboxamide]",1 to 10
